Experimental data reported in patent publication US8847000B2 (priority 2006, dated 2014).

Tested on: cell proliferation
Type: cell-based

Row | Substance | IC50
1 | Arsenious acid | 10 µM
2 | trimethylarsineoxide [TMAO] | > 6000 µM
